Data reported in PubChem BioAssay (NCI).
Several values for one entry are separate records, joined by “and”; a condition that tells them apart may be missing. Equal entries are not always repeated.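 96-well plates; 48 h exposure; 5 concentrations. Endpoints by linear interpolation between flanking doses. Not reached: highest tested concentration assigned. GI50 marks 50% less growth. At the TGI there is no net growth.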

How the values were obtained:
Test in all cases: NCI-60 cell line screen, 48 h
786-0 renal = test system: 786-0 renal
DU-145 prostate = test system: DU-145 prostate
HT29 colon = test system: HT29 colon
MDA-MB-435 = test system: MDA-MB-435
NCI/ADR-RES ovarian = test system: NCI/ADR-RES ovarian
OVCAR-5 ovarian = test system: OVCAR-5 ovarian
SNB-75 CNS = test system: SNB-75 CNS
TK-10 renal = test system: TK-10 renal
A498 renal = test system: A498 renal
SK-MEL-28 melanoma = test system: SK-MEL-28 melanoma

SMILES	TGI (786-0 renal)	TGI (DU-145 prostate)	TGI (HT29 colon)	TGI (MDA-MB-435)	TGI (NCI/ADR-RES ovarian)	TGI (OVCAR-5 ovarian)	TGI (SNB-75 CNS)	TGI (TK-10 renal)	TGI (A498 renal)	TGI (SK-MEL-28 melanoma)	GI50 (MDA-MB-435)	GI50 (OVCAR-5 ovarian)	GI50 (SNB-75 CNS)
CSc1nc(NCc2ccccc2)c2cnn(COCCO)c2n1	> 100 µM	> 100 µM	> 100 µM	80.5 µM	> 100 µM	> 100 µM	53.6 µM	> 100 µM	–	–	–	–	–
CC(NNC(=O)c1ccncc1)c1cccc(C(F)(F)F)c1 (centres undefined)	> 100 µM	> 100 µM	> 100 µM	> 100 µM	> 100 µM	> 100 µM	> 100 µM	> 100 µM	> 100 µM	> 100 µM	–	–	–
COc1cc(/C=C/C(=N\NC(N)=S)c2sc(NNC(C)=O)nc2C)ccc1O	> 100 µM	> 100 µM	> 100 µM	> 100 µM	> 100 µM	> 100 µM	> 100 µM	> 100 µM	> 100 µM	> 100 µM	–	–	–
C(=C/c1nnnn1-c1ccccc1)/Nc1ccccc1	> 100 µM	> 100 µM	> 100 µM	92.9 µM	80.2 µM	> 100 µM	> 100 µM	77.5 µM	> 100 µM	> 100 µM	–	–	–
CCN(C(=O)N[C@H](C(=O)N[C@@H](CSC)C(=O)N[C@@H](C)C(=O)OC)C(C)C)c1ccccc1	34.2 µM	31.2 µM	27.2 µM	27.8 µM	> 100 µM	29.5 µM	27.8 µM	26.4 µM	–	28.7 µM	–	–	–
C=C1CCOC2(C(O)C(C)(O)CO)NC(=O)C1(O)NC2=O (centres undefined)	> 100 µM	> 100 µM	> 100 µM	> 100 µM	> 100 µM	> 100 µM	> 100 µM	> 100 µM	> 100 µM	> 100 µM	–	–	–
Cn1cc2c3ccccc3nc-2c2ccccc21	11.1 µM	5.76 µM	5.35 µM	6.33 µM	4.24 µM	6.84 µM	6.6 µM	20.6 µM	3.27 µM	6.43 µM	–	–	–
CC1OC(O[C@@H]2C=C3CC[C@@H]4[C@H](CC[C@]5(C)[C@@H](c6ccc(=O)oc6)CC[C@]45O)[C@@]3(C)CC2)C(O)C(OC2OC(CO)C(O)C(O)C2O)C1O (some centres undefined)	0.0117 µM	0.0111 µM	0.0878 µM and 0.349 µM	0.02 µM	–	0.039 µM and 0.0523 µM	0.0587 µM and 0.0407 µM	0.016 µM	0.0825 µM	0.0867 µM	0.000454 µM	0.000256 µM	0.000974 µM
Cc1cc(C)c2c(n1)S(=O)(=O)N(CCCN1CCN(c3cccc(Cl)c3)CC1)/C(=C(\O)c1ccc(Br)cc1)C2=O	38.2 µM	> 100 µM	98.8 µM	78.8 µM	> 100 µM	> 100 µM	28.3 µM	60.8 µM	> 100 µM	> 100 µM	–	–	–
C/C(=N\NC(N)=S)c1nc2ncccc2[nH]1	> 100 µM	> 100 µM	> 100 µM	> 100 µM	> 100 µM	> 100 µM	> 100 µM	> 100 µM	> 100 µM	> 100 µM	–	–	–
COc1ccc(Nc2nc(N)c(C(=O)c3ccc(Cl)cc3)s2)cc1	11.2 µM	0.0558 µM	5.28 µM	< 0.01 µM	29.7 µM	34.7 µM	24.8 µM	> 46.3 µM	> 100 µM	> 100 µM	–	–	–
CCCCCCCCCCCCOC1C(COCCN2CCCCC2)OC2OC(C)(C)OC21 (centres undefined)	3.11 µM	21.6 µM	2.53 µM	3.17 µM	14.4 µM	4.23 µM	–	3.55 µM	29.3 µM	3.25 µM	–	–	–
COc1cc2c[n+](C)c3c4cc(OC)c(OCc5ccccc5)cc4c(OCc4ccccc4)cc3c2cc1OC	35.5 µM	45.7 µM	15.5 µM	10.5 µM	> 100 µM	> 100 µM	22.6 µM	79 µM	> 100 µM	20.2 µM	–	–	–
C=CCOC(=O)Cn1ccc(=O)[nH]c1=O	> 100 µM	> 100 µM	> 100 µM	–	> 100 µM	> 100 µM	> 100 µM	> 100 µM	> 100 µM	> 100 µM	–	–	–
C=C(C)CCC1C=[N+]([O-])OC(C)(C)C1(C)C (centres undefined)	> 100 µM	> 100 µM	> 100 µM	> 100 µM	> 100 µM	> 100 µM	> 100 µM	> 100 µM	> 100 µM	–	–	–	–
CN1C(=O)C23CCCC2CC1(c1ccccc1)S3 (centres undefined)	> 100 µM	> 100 µM	> 100 µM	> 100 µM	> 100 µM	> 100 µM	–	> 100 µM	> 100 µM	> 100 µM	–	–	–
CSc1ncc2c(n1)-c1ccccc1OC2	> 100 µM	> 100 µM	> 100 µM	> 100 µM	> 100 µM	> 100 µM	> 100 µM	> 100 µM	73.6 µM	–	–	–	–
CCOC(=O)c1nc2cc(Cl)ccc2[nH]c1=O	> 100 µM	> 100 µM	> 100 µM	> 100 µM	> 100 µM	> 100 µM	–	> 100 µM	> 100 µM	> 100 µM	–	–	–
COC(=O)c1c(O)ccc2c1c1c(n2Cc2cccc(C)c2)C(=O)c2ccccc2C1	–	> 75 µM	19.9 µM	42.7 µM	> 75 µM	> 75 µM	–	> 75 µM	> 75 µM	0.71 µM	–	–	–
O=S(=O)(/N=C(\NO)Nc1ccc(Cl)cc1)c1cc2ccccc2s1	32.3 µM	49.2 µM	35 µM	36.9 µM	38.7 µM	29.5 µM	29.8 µM	41.1 µM	–	39.6 µM	–	–	–
COc1ccc(-c2cc(-c3ccc(Nc4ccnc5cc(Cl)ccc45)cc3)[nH]c(=O)c2C#N)cc1	> 100 µM	> 100 µM	–	> 100 µM	> 100 µM	> 100 µM	> 100 µM	> 100 µM	> 100 µM	> 100 µM	–	–	–
